Bounds are passed on as bounds.

Series [1] can be described thus: Inhibition of Wnt/beta-catenin (unknown origin) expressed in human HEK293 cells expressing MSRII transfected with DNA-LF2K incubated for 24 hrs by luciferase reporter gene assay. As to conditions: HEK293, 24 h.
Series [2] in a line: Dose normalised AUC in Sprague-Dawley rat at 8.6 mg/kg, po. The class given is ADME, organism-based. As to conditions: in vivo.
Series [3] can be described thus: Oral bioavailability in Sprague-Dawley rat at 8.6 mg/kg. The class given is ADME, organism-based. The following applies: in vivo.
A short description of series [4]: Volume of distribution in C57 mouse at 3 mg/kg, po or 1 mg/kg, iv. The class given is ADME, organism-based. As to conditions: in vivo.
Series [5] is described as follows: Clearance in Beagle dog at 2 mg/kg, po or 1 mg/kg, iv. The class given is ADME, organism-based, Canis lupus familiaris. The following applies: in vivo.
The target in series [6] is T1, Cytochrome P450 1A2 (Homo sapiens, UniProt P05177).
T1 sequence (P05177 whole entry): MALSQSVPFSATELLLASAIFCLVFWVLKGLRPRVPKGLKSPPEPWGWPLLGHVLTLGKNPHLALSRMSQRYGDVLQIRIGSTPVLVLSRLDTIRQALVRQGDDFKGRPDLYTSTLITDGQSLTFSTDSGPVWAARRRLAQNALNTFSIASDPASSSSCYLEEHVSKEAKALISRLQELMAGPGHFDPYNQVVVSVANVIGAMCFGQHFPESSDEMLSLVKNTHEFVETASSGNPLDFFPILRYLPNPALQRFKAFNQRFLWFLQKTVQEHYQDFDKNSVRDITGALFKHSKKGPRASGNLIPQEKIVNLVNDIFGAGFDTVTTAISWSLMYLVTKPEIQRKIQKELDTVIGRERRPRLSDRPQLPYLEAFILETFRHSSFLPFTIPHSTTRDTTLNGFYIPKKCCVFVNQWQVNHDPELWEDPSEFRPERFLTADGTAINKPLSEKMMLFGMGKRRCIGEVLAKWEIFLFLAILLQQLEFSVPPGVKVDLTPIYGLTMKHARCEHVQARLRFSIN
Kind of series: Inhibition of CYP1A2 (unknown origin). The class given is ADME.

Series [7] has as its target Cytochrome P450 2C19 (Homo sapiens, UniProt P33261). Kind of series: Inhibition of CYP2C19 (unknown origin). The class given is ADME.
Series [8] is described as follows: Mutagenicity in Salmonella typhimurium TA98 by ames test. As to conditions: salmonella enterica subsp. enterica serovar typhimurium. The class given is toxicity.
Series [9] is described as follows: Mutagenicity in Escherichia coli WP2uvrA by ames test. The class given is toxicity.
A short description of series [10]: Toxicity in Wistar Han rat assessed as irregular breathing at >= 100 mg/kg, po administered for 7 days and measured on day 7. The class given is organism-based. As to conditions: in vivo, 168 h, time 7 day.
Series [11] can be described thus: Toxicity in Wistar Han rat assessed as abnormal soft fecal consistency at >= 100 mg/kg, po administered for 7 days and measured on day 7. The class given is organism-based. The following applies: in vivo, 168 h, time 7 day.
The nature of series [12]: Toxicity in Wistar Han rat assessed as tolerability at 10 mg/kg, po administered for 7 days and measured on day 7. The class given is organism-based. The following applies: in vivo, 168 h, time 7 day.

Chain of Cytochrome P450 2C19 (P33261 whole entry): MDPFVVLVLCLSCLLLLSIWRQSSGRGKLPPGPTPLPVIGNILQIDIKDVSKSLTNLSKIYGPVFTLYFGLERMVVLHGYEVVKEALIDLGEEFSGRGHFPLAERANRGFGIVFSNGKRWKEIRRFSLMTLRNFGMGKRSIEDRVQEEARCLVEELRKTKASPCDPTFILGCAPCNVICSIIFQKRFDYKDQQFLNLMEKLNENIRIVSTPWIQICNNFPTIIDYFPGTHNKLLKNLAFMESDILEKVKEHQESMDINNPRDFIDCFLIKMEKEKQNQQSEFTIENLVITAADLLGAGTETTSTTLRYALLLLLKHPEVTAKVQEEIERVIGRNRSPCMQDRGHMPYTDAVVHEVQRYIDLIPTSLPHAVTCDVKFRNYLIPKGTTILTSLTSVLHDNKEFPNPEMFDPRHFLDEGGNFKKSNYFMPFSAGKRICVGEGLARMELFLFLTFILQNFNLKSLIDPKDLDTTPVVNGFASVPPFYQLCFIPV

For `Cc1cccc2c1c(=O)n(C[C@H]1CC[C@H](C(=O)O)CC1)c(=O)n2Cc1cccc(C(F)(F)F)c1C#N`, the IC50 is 0.02 µM in series [1], more than 100 µM in series [6] and 36 µM in series [7]. In series [2], this compound gave an AUC/dose of 6651 ng·h/mL. Also, in series [3], the bioavailability stood at 133%. This compound returned a Vd in series [4] of 1.34 L/kg. This compound also returned a clearance in [5] of 3.15 mL/min/kg. The Activity result is recorded as “Non-Toxic” in [8]; “Non-Toxic” in series [9]; “Toxic” in series [10]; “Toxic” in series [11]; “Non-Toxic” in series [12].

(Values after ChEMBL document CHEMBL4706771, “Discovery of Orally Bioavailable Ligand Efficient Quinazolindiones as Potent and Selective Tankyrases Inhibitors” (ACS Med Chem Lett, 2021).)
